Key:
citrated rat plasma = test: Ex vivo anticoagulant effect, activated partial thromboplastin time (APTT), rat plasma; details: control clotting time 19.75 sec set to 1.0
Protocol: (§1) The ex vivo anticoagulant effects of BzlSO2 -Met(SO2)-Pro-Arg-al was determined by measuring the prolongation of the activated partial thromboplastin time (APTT) over a broad concentration range of the added inhibitor, using pooled normal human and rat plasma. Fresh frozen citrated pooled normal human plasma was obtained from George King Biomedical, Overland Park, Kans. Pooled normal rat plasma was prepared from citrated whole blood collected from anesthetized rats using standard procedures. The plasma was flash frozen and stored at -80° C. until use. Measurements APTT was made using the Coag-A-Mate RA4 automated coagulometer (General Diagnostics, Organon Technica, Oklahoma City, Okla.) using the Automated APTT reagent (Organon Technica, Durham, N.C.) as the initiator of clotting according to the manufacturers instructions.
(§2) The assay was conducted by making a series of dilutions of the test compounds in rapidly thawed plasma followed by adding 200 microliters to the wells of the assay carousel.

citrated human plasma = test: Ex vivo anticoagulant effect, activated partial thromboplastin time (APTT), human plasma; details: citrated pooled normal human plasma; control clotting time 28.3 sec set to 1.0
Protocol: as §1, §2

[1] = system: thrombotic occlusion of the rat carotid artery; test: Rat model of FeCl3-induced platelet-dependent arterial thrombosis; format: in vivo, rat (male Harlan Sprague Dawley); details: i.v. bolus
Text: Kurz, K. D., Main, B. W., and Sandusky, G. E., Thromb. […] In this model a platelet-rich, occlusive thrombus is formed in a segment of the rat carotid artery treated locally with a fresh solution of FeCl3 absorbed to a piece of filter paper. The FeCl3 is thought to diffuse into the treated segment of artery and causes de-endothelialization of the affected vessel surface. […] The effect of a test compound on the incidence of occlusive thrombus formation following the application of the FeCl3 is monitored by ultrasonic flowtometry and is used as the primary end point. The use of flowtometry to measure carotid artery blood flow, is a modification of the original procedure in which thermal detection of clot formation was employed. Kurz, K. D., Main, B. W., and Sandusky, G. E., Thromb. […] Male Harlan Sprague Dawley rats (420-450 g) were acclimated at least 72 hours prior to use and fasted for 12 hours prior to surgery with free access to water. […] Blood pressure, blood flow, heart rate, and respiration were monitored for 60 minutes. The incidence of occlusion (defined as the attainment of zero blood flow) was recorded as the primary end point. […] This allows a direct comparison of the antithrombotic efficacy of BzlSO2 -[…] with other antithrombotic agents which have also been evaluated in this model as described above.

CS(=O)(=O)CC[C@H](NS(=O)(=O)Cc1ccccc1)C(=O)N1CCC[C@H]1C(=O)N[C@H](C=O)CCCNC(=N)N [Example 27, N-benzylsulfonyl-L-methionine sulfone-L-proline-L-argininal]
prolongation of the APTT (citrated rat plasma): prolonged the APTT in a dose dependent manner in both rat and human plasma | prolongation of the APTT (citrated human plasma): prolonged the APTT in a dose dependent manner in both rat and human plasma | efficacy in preventing thrombus formation (result in words) [1]: reduction in the incidence of thrombotic occlusion

From patent US5776927A, “Methionine sulfone and S-substituted cysteine sulfone derivatives as enzyme inhibitors” (Corvas International, Inc., priority 1994, dated 1998)
